Assay results: patent publication US20160151275A1, “METHOD AND DEVICES FOR MANUFACTURING AND DELIVERING OF AEROSOLIZED FORMULATIONS” (priority 2014, published 2016)
Where two headings read alike, the source gives them in different places.

Settings: human

Question: Which bioavailability does the source give for `Cn1c(=O)c2c(ncn2C)n(C)c1=O` [caffeine] here?
Answer: ~10%

Question: What about the bioavailability (inhaled or intranasal) of the same molecule?
Answer: 80 to 90%
